Experimental data as given in patent US20120101024A1, “Methods and Compositions for Differentiating Embryonic Stem Cells” (REGENERATIVE RESEARCH FOUNDATION, priority 2010, published 2012).

Assays:
[1] = tested on: NPTX1; experiment: NPTX1 knock down by lentiviral shRNA in hESCs, message level; assay type: cell-based, human; conditions: day 3 of neural differentiation
Procedure: (§1) Feeder free neural induction was carried out as previously described (Chambers et al., supra). Briefly, hESC cultures (WA-09 cells) were disaggregated using Accutase (Innovative Cell Technologies, Inc., San Diego, Calif.) for 20 minutes, washed using hESC media and pre-plated on gelatin for 1 hour at 37° C. in the presence of ROCK inhibitor (Sigma, Carlsbad, Calif.) to remove MEFs. The nonadherent hESCs were washed and plated at a density of 20,000 cells/cm^2 on BD Matrigel™ matrix (BD Biosciences, San Diego, Calif.) coated dishes in MEF conditioned hESCs media (CM) spiked with 10 ng/mL of FGF-2 and ROCK-inhibitor (Sigma). The ROCK inhibitor was withdrawn, and hESCs were allowed to expand in CM for 3 days or until they were nearly confluent. The initial differentiation media conditions included knock out serum replacement (KSR) media with […] TGF-β inhibitor (SB431542, Tocris) and 500 ng/mL of Noggin (R&D Systems). Upon day 5 of differentiation, increasing amounts of N2 media (Fasano et al., 2010, supra) (25%, 50%, 75%) was added to the KSR media every two days while maintaining 500 ng/mL of Noggin and TGF-β inhibitor.
(§2) Total RNA was extracted using an RNeasy kit (Qiagen). For each sample, 1 μg of total RNA was treated for DNA contamination and reverse transcribed using Quantitect first strand kit (Qiagen). Amplified material was detected using Taqman probes and PCR mix (ABI) on a Mastercycler RealPlex2 (Eppendorf). All results were normalized to a HPRT control and were from 3 technical replicates of 3 independent biological samples at each data point.
NPTX1 open reading frame (ORF) was generated by PCR. This fragment was cloned into the BamH1 and NotI sites of the lentiviral vector, pCDH-EF1-MCS-IRES GFP(SBI Biosciences). […] Viral titers were measured by serial dilution on NIH 3T3 cells (ATCC Deposit No. CRL-1658) followed by flow cytometric analysis after 72 hours. […]

[2] = tested on: hESCs (WA-09); experiment: Neural induction of hESCs (dual SMAD inhibition protocol), marker expression by qRT-PCR / immunostaining; assay type: cell-based, human; conditions: for expression of the neural genes SOX1 and PAX6 (mRNA) compared to control: control empty vector
Procedure: as §1, §2
Cells were fixed using 4% paraformaldehyde for 15 minutes, washed with PBS, permeabilized using 0.3% Triton X in PBS, and blocked using 10% normal goat serum. Primary antibody used for microscopy was PAX6 (DSHB).
hESCs (WA-09; passages 35) were dissociated and plated on Matrigel with the ROCK inhibitor as single cells. 24 hrs post plating the ESCs were transduced with either control (empty vector), NPTX1 shRNA, or NPTX10RF containing vectors. One (1) week later, GFP-expressing colonies were manually picked and plated on MEFs. Cells were then expanded, tested for mycoplasma.
(§3) Antibodies used for performing immunocytochemistry, methods for which are described in Fasano et al., 2007, and 2010, supra, were obtained commercially as follows: PAX6 (Developmental Studies Hybridoma Bank (Iowa City, Iowa)), SOX2 (Santa Cruz Biotechnology (SCBT) (Santa Cruz, Calif.)), Nestin (Chemicon (Temecula, Calif.)), Nanog (SCBT), OCT-4 (SCBT), SMAD3 and SMAD1 (Cell Signaling Technology, Inc., Danvers, Mass.), FOXG1 (NeuraCell, Rensselaer, N.Y.), SSEA-4, SSEA-3, SSEA-1 (BD Pharmingen (San Diego, Calif.)). Alexa secondary antibodies were purchased from Invitrogen.

[3] = tested on: hESCs; experiment: Dual SMAD protocol with substituted factors, PAX6 and SMAD1 at day 7 (BMP signaling); assay type: cell-based, human; conditions: after 7 days of differentiation
Procedure: as §1, §3
The directed neural differentiation paradigm used in this study employed the use of both a TGF-beta blocker (SB431542) and Noggin, a BMP blocker, as it has been shown that blocking only TGF-beta is not sufficient to drive neural commitment. While CRIPTO works to enhance NODAL signaling, it has been shown that NODAL itself can bind up BMPs and thus lower BMP signaling. Because NPTX1 depletes available CRIPTO in the extracelluar space and cell surface, it seemed plausible that the resulting excess Nodal could dampen BMP signaling. To test whether NPTX1 expression can reduce BMP signaling, the dual SMAD protocol was employed to generate neural cells (addition of Noggin and TGF-beta inhibitor SB431542).
In one condition, Noggin was substituted with a CRIPTO blocking antibody to see if CRIPTO loss could result in robust neural differentiation. As a positive control for BMP signaling, another group was treated with high levels of BMP7. After 7 days of differentiation, neural marker expression and SMAD1 levels were determined.

[4] = tested on: hESCs (WA-09); experiment: Neurosphere assay on cells isolated at day 7 of differentiation; assay type: cell-based, human
From the text: To assess the neural character of the cells generated, the resulting cells were isolated at day 7 of differentiation and subjected to a neurosphere assay. […] In control conditions, the neural genes PAX6 and SOX1 started to appear around day 4 (FIGS. 4B and 4C, respectively).

[5] = target: T1, CRIPTO (Homo sapiens, UniProt P13385); experiment: Co-immunoprecipitation of CRIPTO with NPTX1-His from membrane fraction of hESCs; assay type: binding; conditions: conditioned media applied to hESCs for 1 hour
T1 construct: endogenous in cells; host or cells: hESCs (WA-09), membrane fraction of lysed cells
T1 sequence (P13385 31-150): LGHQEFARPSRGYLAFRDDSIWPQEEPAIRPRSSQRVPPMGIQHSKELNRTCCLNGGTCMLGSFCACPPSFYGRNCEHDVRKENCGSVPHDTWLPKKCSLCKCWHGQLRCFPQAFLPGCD

[6] = tested on: hESCs; experiment: Recombinant CRP added to hESCs in neural differentiation conditions, mRNA at day 7; assay type: cell-based, human; conditions: 2 μg/ml, administered on days 0, 3 and 5; 7 days
Procedure: as §2
C-Reactive Protein (CRP) is a pentraxin protein that is found in the blood, and levels of which rise in response to stress and/or inflammation. […] It was also reported that, when CRP levels went over a particular threshold at 4-weeks of gestation, the time at which nervous system development occurs, an increased rate of miscarriage was identified. In the present Example, it was thus tested whether another member of the pentraxin protein family, in addition to NPTX1 might play an important role in neural differentiation. Recombinant CRP(R&D Systems, 2 μg/ml) or a vehicle control was added to hESCs cultured in conditions that would allow for neural development to proceed normally in the dish. […] Such acceleration of human development could be a cue for miscarriage and/or neural birth defects in fetuses exposed to high levels of CRP during this critical time of gestation.

[7] = day 7 of neural differentiation

shRNA3: lentiviral NPTX1 shRNA, GAG AAA GGT CAG AAA GAC A (SEQ ID NO: 44) (GAGAAAGGTCAGAAAGACA)
knock down of NPTX1 at the message level [1]: successfully knocked down NPTX1
expression of the neural genes SOX1 and PAX6 (mRNA) compared to control [2, 7]: significantly reduced levels
expression of early neuroectodermal markers GBX2 and SOX2 (qRT-PCR) ([2]; days 0-7, days 5 and 7 statistically significant): drastic reduction

NC(=O)c1ccc(-c2nc(-c3ccc4c(c3)OCO4)c(-c3ccccn3)[nH]2)cc1 [SB431542, reference compound]
PAX6 expression [3]: few PAX6 cells
pSMAD1 / SMAD1 levels [3]: high pSMAD1 levels

shRNA2: lentiviral NPTX1 shRNA, ACG TGT AGG TTG AGA ACA A (SEQ ID NO: 43) (ACGTGTAGGTTGAGAACAA)
knock down of NPTX1 at the message level [1]: successfully knocked down NPTX1
SMAD2 and SMAD3 gene expression (RT-PCR) ([2]; NPTX1 knockdown hESCs): elevated gene expression
NANOG and OCT4 levels compared to control ([2]; day 7 of differentiation): elevated levels
CRIPTO expression compared to control-treated cells [2, 7]: 20 fold
expression of the neural genes SOX1 and PAX6 (mRNA) compared to control [2, 7]: significantly reduced levels
gene expression of PAX6 and SOX1 along the time course compared to control ([2]; time course of neural differentiation): much delayed and at much lower levels
number of neurospheres compared to control [4]: significant reduction

shRNA1: lentiviral NPTX1 shRNA, AGT AAA GAG TGG AGA AAG A (SEQ ID NO: 42); did not knock down, used as negative control (AGTAAAGAGTGGAGAAAGA)
knock down of NPTX1 at the message level [1]: did not knock down NPTX1
expression of the neural genes SOX1 and PAX6 (mRNA) compared to control [2, 7]: no effect

B1: NPTX1-His: NPTX1 protein with six HIS amino acids on the N-terminus, in conditioned media (protein)
chain: HHHHHHQDFGPTRFICTSVPVDADMCAASVAAGGAEELRSSVLQLRETVLQQKETILSQKETIRELTAKLGRCESQSTLDPGAGEARAGGGRKQPGSGKNTMGDLSRTPAAETLSQLGQTLQSLKTRLENLEQYSRLNSSSQTNSLKDLLQSKIDELERQVLSRVNTLEEGKGGPRNDTEERVKIETALTSLHQRISELEKGQKDNRPGDKFQLTFPLRTNYMYAKVKKSLPEMYAFTVCMWLKSSATPGVGTPFSYAVPGQANELVLIEWGNNPMEILINDKVAKLPFVINDGKWHHICVTWTTRDGVWEAYQDGTQGGSGENLAPYHPIKPQGVLVLGQEQDTLGGGFDATQAFVGELAHFNIWDRKLTPGEVYNLATCSTKALSGNVIAWAESHIEIYGGATKWTFEACRQIN
co-immunoprecipitation with CRIPTO [5]: coimmunoprecipitate

B2: BMP7: positive control for BMP signaling, high levels of BMP7 (protein, UniProt P18075 293-431, looked up)
Bone morphogenetic protein 7: STGSKQRSQNRSKTPKNQEALRMANVAENSSSDQRQACKKHELYVSFRDLGWQDWIIAPEGYAAYYCEGECAFPLNSYMNATNHAIVQTLVHFINPETVPKPCCAPTQLNAISVLYFDDSSNVILKKYRNMVVRACGCH
PAX6 expression [3]: few PAX6 cells
pSMAD1 / SMAD1 levels [3]: high pSMAD1 levels

B3: CRP: recombinant C-reactive protein (R&D Systems), a pentraxin protein (protein, UniProt P02741 19-224, looked up)
C-reactive protein: QTDMSRKAFVFPKESDTSYVSLKAPLTKPLKAFTVCLHFYTELSSTRGYSIFSYATKRQDNEILIFWSKDIGYSFTVGGSEILFEVPEVTVAPVHICTSWESASGIVEFWVDGKPRVRKSLKKGYTVGAEASIILGQEQDSFGGNFEGSQSLVGDIGNVNMWDFVLSPDEINTIYLGGPFSPNVLNWRALKYEVQGEVFTKPQLWP
NPTX1 expression [6]: increase
neural marker PAX6 compared to the control [6]: striking up-regulation
